Patent US7625948B2, “Ester compound and medicinal use thereof” (Japan Tobacco Inc., priority 2002, dated 2009)

Legend:
[1] = target: T1, Microsomal triglyceride transfer protein (MTP) from bovine liver (Bos taurus, UniProt P55156); assay: Test Example 1: inhibition of interliposomal triglyceride (TG) transfer activity by MTP (also used for metabolites in Test Example 8); format: biochemical; settings: MTP-mediated 14C-triolein transfer between liposomes, 37° C., one hour; read-out: Test Example 1 MTP inhibition IC50
T1 construct: from tissue; host or cells: bovine liver
T1 sequence (P55156 12-887): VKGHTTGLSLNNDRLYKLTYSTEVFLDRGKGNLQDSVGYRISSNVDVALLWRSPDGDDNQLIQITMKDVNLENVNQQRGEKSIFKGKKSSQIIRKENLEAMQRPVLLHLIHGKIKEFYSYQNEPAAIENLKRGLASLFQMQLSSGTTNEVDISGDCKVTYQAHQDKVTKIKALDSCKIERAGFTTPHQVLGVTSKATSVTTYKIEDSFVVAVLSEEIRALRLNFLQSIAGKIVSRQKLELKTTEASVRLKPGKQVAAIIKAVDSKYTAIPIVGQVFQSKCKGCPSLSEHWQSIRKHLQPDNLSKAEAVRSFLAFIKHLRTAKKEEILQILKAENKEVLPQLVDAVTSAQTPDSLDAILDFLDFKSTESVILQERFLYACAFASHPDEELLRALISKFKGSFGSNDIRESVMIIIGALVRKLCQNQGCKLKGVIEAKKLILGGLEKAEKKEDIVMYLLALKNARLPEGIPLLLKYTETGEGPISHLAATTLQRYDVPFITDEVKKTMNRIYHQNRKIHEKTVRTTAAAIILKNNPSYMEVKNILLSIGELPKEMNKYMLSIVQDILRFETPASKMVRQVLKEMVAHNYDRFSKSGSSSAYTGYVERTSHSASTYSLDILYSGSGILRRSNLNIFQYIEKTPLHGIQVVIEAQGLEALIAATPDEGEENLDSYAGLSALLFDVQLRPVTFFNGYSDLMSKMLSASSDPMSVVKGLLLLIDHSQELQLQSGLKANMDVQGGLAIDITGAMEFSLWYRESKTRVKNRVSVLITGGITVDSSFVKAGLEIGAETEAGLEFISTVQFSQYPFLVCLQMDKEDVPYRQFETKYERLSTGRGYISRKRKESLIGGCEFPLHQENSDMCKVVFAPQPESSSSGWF
T1 sequence (P05307 21-510 partner): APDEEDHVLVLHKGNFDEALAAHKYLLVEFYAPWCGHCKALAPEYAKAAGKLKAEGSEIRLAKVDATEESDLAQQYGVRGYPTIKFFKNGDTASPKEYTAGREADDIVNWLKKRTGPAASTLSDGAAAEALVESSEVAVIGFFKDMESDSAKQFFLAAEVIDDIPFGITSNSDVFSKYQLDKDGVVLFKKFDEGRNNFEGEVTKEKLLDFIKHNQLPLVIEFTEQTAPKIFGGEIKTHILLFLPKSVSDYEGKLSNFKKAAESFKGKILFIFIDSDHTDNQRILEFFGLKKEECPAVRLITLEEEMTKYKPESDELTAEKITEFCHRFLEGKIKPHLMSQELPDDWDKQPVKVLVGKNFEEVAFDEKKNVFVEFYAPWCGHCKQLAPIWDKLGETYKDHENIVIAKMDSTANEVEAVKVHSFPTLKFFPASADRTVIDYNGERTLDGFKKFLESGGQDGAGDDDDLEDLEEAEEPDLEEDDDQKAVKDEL
Procedure, shortened: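 Partially purified bovine liver MTP (DEAE chromatography) incubated 1 h at 37 °C, pH 7.4, with ^14C-triolein-labelled donor SUVs and unlabelled acceptor SUVs plus compound in DMSO. Acceptor radioactivity, blank-corrected, gave % inhibition versus DMSO; IC50 derived. Metabolites tested likewise.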

HepG2 cells = assay: Test Example 2: inhibition of apolipoprotein B secretion from HepG2 cells, ELISA (also used for metabolites in Test Example 8); format: cell-based; settings: Homo sapiens, 24 hours, apo B in supernatant by ELISA, read-out: Test Example 2 Inhibition of apo B secretion IC50
Procedure, shortened: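 HepG2 cells cultured 24 h, then exposed 24 h to compounds or metabolites in medium with 0.5% DMSO. Secreted apo B in supernatant quantified by sandwich ELISA (HRP, ABTS, 405 nm) against purified human apo B standard; % inhibition vs DMSO group, IC50 derived.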

Syrian hamsters [2] = assay: Test Example 3: olive oil-loading test (inhibition of fat absorption, plasma TG); format: in vivo; settings: Mesocricetus auratus, po; 100 mg/kg p.o.; plasma TG 4 hours after olive oil; read-out: Test Example 3 Inhibition of fat absorption after olive oil-loading in Hamster Inhibition rate (%)
Syrian hamsters [3] = assay: as above; format: in vivo; settings: Mesocricetus auratus, po, plasma TG 4 hours after olive oil, read-out: Test Example 3 Inhibition of fat absorption after olive oil-loading in Hamster Inhibition rate (%); for inhibition in vivo at 3 mg/kg: 3 mg/kg p.o.
Experimental: Syrian hamsters (9-11 weeks of age) under non-fasted conditions were used in the test. Blood was collected previously from orbital venous plexus, and a sample was suspended in 0.5% methyl cellulose (vehicle) and the suspension was forced to be administered orally to the hamsters at a dose of 0.3, 1, 3 or 10 mg/2 mL/kg. Only vehicle in the same volume was administered to the control group. Olive oil (2 mL/kg) was forced to be administered orally 30 minutes after the administration of the sample, and blood was collected from orbital venous plexus 4 hours later. Plasma was recovered from the blood, and the amount of triglyceride (TG) in the plasma was determined by automatic analyzer (Hitachi Co.). The data was expressed in terms of ΔTG(mg/dL)=the value at 4th hr minus the value before administration. Inhibition rate (%) was calculated from the data obtained on the basis of the following equation.
Inhibition rate (%)=100×(1 minus ΔTG of sample group/ΔTG of control group).

Japanese white rabbits = assay: Test Example 5: combination use test in cholesterol-loaded rabbit model (plasma cholesterol); format: in vivo; settings: 1 mg/kg in high cholesterol diet, from grouping to the 4th day
Experimental: Japanese white rabbits (male, 19 weeks of age, JW, purchased from Kitayama Labes Co., Ltd.) were fed previously in such a way that they were fed a high cholesterol diet (0.3% cholesterol+3% peanut oil-added RC-4, Product of Oriental Yeast Co., Ltd.) of 70 g/day under limited feeding for one day. The rabbits thus fed were used as a cholesterol-loaded rabbit model, and the grouping of such model was carried out in such a way that there might be no variation in the amount of plasma cholesterol among each group (five rabbits/group). […] The rabbits were fed 70 g of each diet every morning. Blood was collected from auricular artery 6 hours after the feeding on the 4th day of the administration, and cholesterol level in plasma was assayed. In the table, increased amount of plasma cholesterol during from the time of grouping to the 4th day was shown.

| SMILES | IC50 [1] [nM] | IC50 (HepG2 cells) [nM] | inhibition in vivo at 100 mg/kg (Syrian hamsters [2]) [%] | inhibition in vivo at 3 mg/kg (Syrian hamsters [3]) [%] | inhibition in vivo at 10 mg/kg (Syrian hamsters [3]; 10 mg/kg p.o.) [%] | Increased amount of total cholesterol (Japanese white rabbits) [mg/dL] |
| --- | --- | --- | --- | --- | --- | --- |
| CCOC(=O)C(COC(=O)Cc1ccc(NC(=O)c2ccccc2-c2ccc(C(F)(F)F)cc2)c(C)c1)(C(=O)OCC)c1ccccc1 [Example 1-3, 2-(2-{3-Methyl-4-[(4′-trifluoromethylbiphenyl-2-carbonyl)amino]phenyl}acetoxymethyl)-2-phenylmalonic acid diethyl ester] | 4.7 | 5.75 | 65 |  |  |  |
| CCNC(=O)C(COC(=O)Cc1ccc(NC(=O)c2ccccc2-c2ccc(C(F)(F)F)cc2)c(C)c1)(C(=O)NCC)c1ccccc1 [Example 1-45] | 0.39 | 0.46 | 71 |  |  |  |
| CC(C)CNC(=O)C(COC(=O)Cc1ccc(NC(=O)c2ccccc2-c2ccc(C(F)(F)F)cc2)cc1)(C(=O)NCC(C)C)c1ccccc1 [Example 1-66] | 16 | 9.3 | 52 |  |  |  |
| CCCNC(=O)C(COC(=O)Cc1ccc(NC(=O)c2ccccc2-c2ccc(C(F)(F)F)cc2)c(C)c1)(C(=O)NCCC)c1ccccc1 [Example 1-72] | 0.44 | 2.7 | 54 |  |  |  |
| CCNC(=O)C(CCOC(=O)Cc1ccc(NC(=O)c2ccccc2-c2ccc(C(F)(F)F)cc2)c(C(=O)N(C)CC)c1)(C(=O)NCC)c1ccccc1 [Example 2-15] |  | 0.53 |  | 81 |  |  |
| CCCN(C)C(=O)c1cc(CC(=O)OCC(C(=O)OCC)(C(=O)OCC)c2ccccc2)ccc1NC(=O)c1ccccc1-c1ccc(C(F)(F)F)cc1 [Example 2-18] |  | 0.69 |  | 58 |  |  |
| CCC(=O)N[C@H](COC(=O)Cc1ccc(NC(=O)c2ccccc2-c2ccc(C(F)(F)F)cc2)c(C(=O)N(C)C)c1)c1ccccc1 [Example 2-25] |  | 6.3 |  | 55 |  |  |
| CCOC(=O)C(COC(=O)Cc1ccc(NC(=O)c2ccc(C)cc2-c2ccc(C(F)(F)F)cc2)c(C(=O)N(C)C)c1)(C(=O)OCC)c1ccccc1 [Example 2-48] |  | 0.36 |  | 87 |  |  |
| CCC(C)(C)C(=O)O[C@H]1C[C@@H](C)C=C2C=C[C@H](C)[C@H](CC[C@@H]3C[C@@H](O)CC(=O)O3)[C@H]21 [Simvastatin, simvastatin, reference compound] |  |  |  |  |  | 48.6 |

More lines, main results first:

| IC50 [1] [nM] | IC50 (HepG2 cells) [nM] | SMILES | inhibition in vivo at 100 mg/kg (Syrian hamsters [2]) [%] | inhibition in vivo at 3 mg/kg (Syrian hamsters [3]) [%] | inhibition in vivo at 10 mg/kg (Syrian hamsters [3]; 10 mg/kg p.o.) [%] | Increased amount of total cholesterol (Japanese white rabbits) [mg/dL] |
| --- | --- | --- | --- | --- | --- | --- |
|  | 2.2 | CCCNC(=O)C(COC(=O)Cc1ccc(NC(=O)c2ccccc2-c2ccc(C(F)(F)F)cc2)c(OC)c1)(C(=O)NCCC)c1ccccc1 [Example 3-5] |  |  | 80 |  |
|  | 0.36 | CCNC(=O)C(CCOC(=O)Cc1ccc(NC(=O)c2ccccc2-c2ccc(C(F)(F)F)cc2)c(OC(C)C)c1)(C(=O)NCC)c1ccccc1 [Example 3-11] |  | 75 |  |  |
| 4 | 28 | CCNC(=O)C(CCOC(=O)Cc1cccc(NC(=O)c2ccccc2-c2ccc(C(F)(F)F)cc2)c1C)(C(=O)NCC)c1ccccc1 [Example 5-9] | 78 |  |  |  |
| 1.3 | 5.1 | CCCNC(=O)C(CCOC(=O)Cc1cccc(NC(=O)c2ccccc2-c2ccc(C(F)(F)F)cc2)c1C)(C(=O)NCCC)c1ccccc1 [Example 5-11] | 64 |  |  |  |
|  | 2.3 | CCNC(=O)C(COC(=O)Cc1ccc(NC(=O)c2ccccc2-c2ccc(C(F)(F)F)cc2)c(C(=O)OCC)c1)(C(=O)NCC)c1ccccc1 [Example 9-10] |  | 54 |  |  |
|  | 0.53 | CCNC(=O)C(COC(=O)Cc1ccc(NC(=O)c2ccccc2-c2ccc(C(F)(F)F)cc2)c(C(=O)OC)c1)(C(=O)NCC)c1ccccc1 [Example 9-13] |  | 70 |  |  |
